Measured values from US20100136029A1, “Use of Tri-Substituted Glycerol Compounds for the Treatment of Hematological Malignancies” (UNIVERSITATSKLINIKUM HAMBURG-EPPENDORF, priority 2006, published 2010).
“Also recorded” adds a separate entry of the source.

How the values were obtained:
[1] = system: RPMI8226; assay: Cytotoxicity (cell death) by 7-amino-actinomycin D staining and flow cytometry, RPMI8226 cells
Description: (§1) The following cell lines were used: KMS-12-BM, K562, RPMI8226, OPM-2, NCI-H929, U266, and HL60. The cells were grown in 96-well tissue culture plates in a volume of 200 μl to a concentration of 1×10^6 cells/ml. Then, the cells were incubated for 20 h with 5 μg/ml, 10 μg/ml, and 20 μg/ml ET-18-OCH3 (final concentrations), respectively. Cell death was assessed by staining the cells with 7-amino-actinomycin D (final concentration 200 μg/ml) and analyzed via flow cytometry as described (see, e.g., Schmid, I. et al. (1994) J. Immunol. Meth. 170, 145-157; Ayuk, F. A. et al. (2005) Exp. Hematol. 33, 1531-1536).
(§2) The following human cell lines were used: • 1. KMS-12-BM (DMSZ no. ACC 551), bone marrow cells; myeloma/plasmacytoma; none of the genetic alterations defined herein; Chesi, M. et al. (2001), supra. • 2. K562 (ATCC no. CCL-243); bone marrow cells; CML; none of the genetic alterations defined herein; Delgado, M. D. et al. (2001), supra. • 3. […] OPM-2 (ATCC no. CRL-13007); lymphoblast cells; myeloma; t(4;14) chromosomal translocation; K650E FGFR3 gene mutation (AAG→GAG at codon 650); Chesi, M. et al. (2001), supra. • 5. NCI-H929 (ATCC no. CRL-9068); bone marrow cells; myeloma/plasmacytoma; t(4;14) chromosomal translocation; N13-G>D N-ras gene mutation (GGT→GAT at codon 13); Chesi, M. et al. (2001), supra. • 6. U266 (ATCC no. TIB-196); peripheral blood cells; myeloma/plasmacytoma; none of the genetic alterations defined herein; Chesi, M. et al. (2001), supra. • 7. HL60 (ATCC no. CCL-240); peripheral blood cells; AML; N61-Q>R N-ras gene mutation (CAA→CGA at codon 61); Bos, J. L. et al. (1984), supra. • 8. Jurkat (ATCC no. TIB-152); peripheral blood cells; ALL; 2 by deletion and 9 by insertion at codon 234 in exon 7 of the PTEN gene (resulting in downstream stop codons); Sakai, A. et al. (1998), supra.
(§3) The cells were grown in 96-well tissue culture plates in a volume of 200 μl to a concentration of 1×10^6 cells/ml. Then, the cells were incubated for 20 h with a final concentration of 5 μg/ml, 10 μg/ml, and 20 μg/ml 1-O-octadecyl-2-O-methyl-glycero-3-phosphocholine (ET-18-OCH3), respectively. Cell death was assessed by staining the cells with 7-amino-actinomycin D (Calbiochem, Darmstadt, Germany; final concentration 200 μg/ml) and analyzed via flow cytometry using a FACS-Scan flow cytometer (BD Biosciences, San Jose, Calif., USA) as described (see, e.g., Schmid, I. et al. (1994) J. Immunol. Meth. 170, 145-157; Ayuk, F. A. et al. (2005) Exp. Hematol. 33, 1531-1536).
(§4) The cells were again grown in 96-well tissue culture plates in a volume of 200 μl to a concentration of 1×10^6 cells/ml. Then, the cells were incubated for 20 h with the respective drugs. […] The cytotoxic effect of ET-18-OCH3 in combination with bortezomib was determined in Jurkat, HL60 cells, and RPMI8226 cell, whereas the cytotoxic effect of ET-18-OCH3 in combination with cytarabine, fludarabine and etoposide, respectively, in Jurkat and HL60 cells. Cell death was assessed as described in example 1.

[2] = system: HL60 cells; assay: Cytotoxicity (cell death) by 7-amino-actinomycin D staining and flow cytometry, HL60 cells
Description: as §1, §2, §3, §4

[3] = system: Jurkat cells; assay: cells; details: Homo sapiens, 20 h
Description: Cell culture was performed as described in FIG. 1. ET-18-OCH3 was added in a final concentration of 2.5 or 5.0 μg/ml (“E2.5” and “E5”, respectively) without or in combination with 5 or 10 ng/ml bortezomib (“Vel5” and “Vel10”, respectively), and the cells were incubated for 20 h. Cell death was assessed as described in FIG. 1. The results are expressed as mean±SEM of three independent experiments.
as §2, §3, §4

[4] = system: OPM-2 cells; assay: Cytotoxicity (cell death) by 7-amino-actinomycin D staining and flow cytometry, OPM-2 cells; format: cell-based
Excerpt: (§5) The following human cell lines were used: • 1.

[5] = system: K562; assay: Cytotoxicity (cell death) by 7-amino-actinomycin D staining and flow cytometry, K562 cells; format: cell-based, human; details: K562, 20 h, 5, 10 and 20 μg/ml ET-18-OCH3, FIG. 1
Excerpt: as §5

[6] = system: NCI-H929; assay: Cytotoxicity (cell death) by 7-amino-actinomycin D staining and flow cytometry, NCI-H929 cells; format: cell-based
Excerpt: as §5

[7] = system: U266 cells; assay: Cytotoxicity (cell death) by 7-amino-actinomycin D staining and flow cytometry, U266 cells; format: cell-based, human; details: U266, 20 h, 5, 10 and 20 μg/ml ET-18-OCH3, FIG. 1
Excerpt: as §5

[8] = system: KMS-12-BM; assay: Cytotoxicity (cell death) by 7-amino-actinomycin D staining and flow cytometry, KMS-12-BM cells; format: cell-based, human; details: 20 h, 5, 10 and 20 μg/ml ET-18-OCH3, FIG. 1
Excerpt: as §5

## CC(C)C[C@H](NC(=O)[C@H](Cc1ccccc1)NC(=O)c1cnccn1)B(O)O [Bortezomib, bortezomib]
[1]; Homo sapiens, RPMI-8226, 20 h
  cytotoxicity at 0.005 µg/mL: 7.3 ± 4.5%
  cytotoxicity at 0.01 µg/mL: 25.1 ± 4%
[2]; Homo sapiens, HL-60, 20 h
  cytotoxicity at 0.005 µg/mL: 2.7 ± 1.9%
  cytotoxicity at 0.01 µg/mL: 10.9 ± 3.7%
[3]
  cytotoxicity at 0.005 µg/mL: 0.4 ± 0.5%
  cytotoxicity at 0.01 µg/mL: 3.6 ± 1.4%

## Nc1ccn([C@@H]2O[C@H](CO)[C@@H](O)[C@@H]2O)c(=O)n1 [Cytarabine, cytarabine]
[2]; Homo sapiens, HL-60, 20 h
  cytotoxicity at 10 µM: 24 ± 2.8%
  cytotoxicity at 40 µM: 26.9 ± 5%
[3]
  cytotoxicity at 10 µM: 11.1 ± 0.5%
  cytotoxicity at 40 µM: 12.4 ± 1.2%

## CCCCCCCCCCCCCCCCCCOCC(COP(=O)([O-])OCC[N+](C)(C)C)OC (stereo not shown) [ET-18-OCH3, 1-O-octadecyl-2-O-methyl-glycero-3-phosphocholine]
[1]; Homo sapiens, RPMI-8226, 20 h
  cytotoxicity at 2.5 µg/mL: 11.2 ± 8.1%
  cytotoxicity at 5 µg/mL: 34.7 ± 13.2%
[1]; RPMI8226, 20 h, 20 μg/ml ET-18-OCH3, FIG. 1
  cell death in words: almost complete cell death
[1]; RPMI8226, 20 h, 5, 10 and 20 μg/ml ET-18-OCH3, FIG. 1
  cytotoxic effect, dose dependence: dose-dependent effect
[4]; OPM-2, 20 h, 20 μg/ml ET-18-OCH3, FIG. 1
  cells died: about 75%
[4]; OPM-2, 20 h, 5, 10 and 20 μg/ml ET-18-OCH3, FIG. 1
  cytotoxic effect, dose dependence: dose-dependent effect
[5]
  cytotoxic effect (cell death) in words: dose-dependent effect; also recorded: significantly reduced or even almost abolished
[6]; NCI-H929, 20 h, 20 μg/ml ET-18-OCH3, FIG. 1
  cell death in words: almost complete cell death
[6]; NCI-H929, 20 h, 5, 10 and 20 μg/ml ET-18-OCH3, FIG. 1
  cytotoxic effect, dose dependence: dose-dependent effect
[7]
  cytotoxic effect (cell death) in words: do not respond to ET-18-OCH3 at all; also recorded: significantly reduced or even almost abolished
[2]
  cytotoxic effect, dose dependence: dose-dependent effect
[2]; HL60, 20 h, 20 μg/ml ET-18-OCH3, FIG. 1
  cell death in words: almost complete cell death
[2]; Homo sapiens, HL-60, 20 h
  cytotoxicity at 2.5 µg/mL: 11.3 ± 7.3%
  cytotoxicity at 5 µg/mL: 35 ± 15.9%
[3]
  cytotoxicity at 2.5 µg/mL: 2.1 ± 1%
  cytotoxicity at 5 µg/mL: 13.1 ± 5.3%
[8]
  cytotoxic effect (cell death) in words: significantly reduced or even almost abolished; also recorded: dose-dependent effect

## COc1cc([C@@H]2c3cc4c(cc3[C@@H](O[C@@H]3O[C@@H]5CO[C@@H](C)O[C@H]5[C@H](O)[C@H]3O)[C@H]3COC(=O)[C@H]23)OCO4)cc(OC)c1O [Etoposide, etoposide]
[2]; Homo sapiens, HL-60, 20 h
  cytotoxicity at 1 µM: 4.1 ± 0.7%
  cytotoxicity at 2.5 µM: 10.7 ± 5.4%
  cytotoxicity at 5 µM: 23.3 ± 8.2%
[3]
  cytotoxicity at 1 µM: 5.9 ± 1.1%
  cytotoxicity at 2.5 µM: 10 ± 0.8%
  cytotoxicity at 5 µM: 16.8 ± 8.4%

## Nc1nc(F)nc2c1ncn2[C@@H]1O[C@H](CO)[C@@H](O)[C@@H]1O [Fludarabine, fludarabine]
[2]; Homo sapiens, HL-60, 20 h
  cytotoxicity at 10 µM: 13.8 ± 9.4%
  cytotoxicity at 50 µM: 37.2 ± 4.6%
[3]
  cytotoxicity at 10 µM: 2.4 ± 0.9%
  cytotoxicity at 50 µM: 6.2 ± 2.4%
